Results from patent US7449488B2, “Pyrazolopyrimidines as protein kinase inhibitors” (priority 2002, dated 2008).

Biological target: T1, CDK2 (cyclin A or E-dependent; cyclin-CDK2 complexes) (Homo sapiens, UniProt P24941)
T1 construct: made in house; host or cells: SF9 insect cells (baculovirus)
Experiment: CDK2 in vitro kinase assay (cyclin A or E-dependent), SPA
Assay type: biochemical

| SMILES | IC50 |
| --- | --- |
| CCc1cn2ncc(Br)c2nc1C | 0.1 µM |
| Cc1nc2c(Br)cnn2cc1CCO | 0.3 µM |
| OCC[C@@H]1CCCCN1c1ccn2ncc(Br)c2n1 | 0.03 µM |
